Here are results for one molecule from PMC4850449, “Bufexamac ameliorates LPS-induced acute lung injury in mice by targeting LTA4H” (Scientific Reports, 2016).

The assay concerns the target T1, LTA4H (leukotriene A4 hydrolase) (Homo sapiens, UniProt P09960).
T1 sequence (P09960 2-611): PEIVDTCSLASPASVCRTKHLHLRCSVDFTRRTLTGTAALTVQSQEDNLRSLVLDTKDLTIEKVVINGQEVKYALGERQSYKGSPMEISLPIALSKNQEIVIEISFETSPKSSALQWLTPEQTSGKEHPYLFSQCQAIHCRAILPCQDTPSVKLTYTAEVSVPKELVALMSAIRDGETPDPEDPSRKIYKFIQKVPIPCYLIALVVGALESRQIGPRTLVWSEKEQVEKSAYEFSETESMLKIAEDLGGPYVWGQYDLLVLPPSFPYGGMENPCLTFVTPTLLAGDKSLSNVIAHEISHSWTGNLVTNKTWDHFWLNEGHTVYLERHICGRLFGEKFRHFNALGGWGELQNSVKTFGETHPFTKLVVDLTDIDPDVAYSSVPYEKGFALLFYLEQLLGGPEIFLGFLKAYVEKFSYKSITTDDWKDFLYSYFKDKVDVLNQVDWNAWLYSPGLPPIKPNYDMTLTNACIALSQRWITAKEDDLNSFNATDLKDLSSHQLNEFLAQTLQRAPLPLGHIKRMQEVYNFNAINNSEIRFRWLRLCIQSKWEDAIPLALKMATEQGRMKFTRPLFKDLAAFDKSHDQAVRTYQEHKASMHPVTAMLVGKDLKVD
The assay is described as follows: X-ray co-crystal structure ([…] Å); purified enzyme inhibition (epoxide hydrolase IC50 […], aminopeptidase IC50 […]). It counts as biochemical.

pIC50: −log10 of the molar value.

One may read the pIC50 as the IC50 on a negative log10 scale, so that one unit is a factor of ten. A low value points to a large IC50. `CCCCOc1ccc(CC(=O)NO)cc1` [Bufexamac]: the negative-log IC50 (pIC50) was 4.94.
